Test results published in BindingDB's records for doi:10.7270/Q2J101NV (Burnham Center For Chemical Genomics, 2010).

Molecular target: T1, Alkaline phosphatase, tissue-nonspecific isozyme (Homo sapiens, UniProt P05186)
T1 sequence (P05186 whole entry): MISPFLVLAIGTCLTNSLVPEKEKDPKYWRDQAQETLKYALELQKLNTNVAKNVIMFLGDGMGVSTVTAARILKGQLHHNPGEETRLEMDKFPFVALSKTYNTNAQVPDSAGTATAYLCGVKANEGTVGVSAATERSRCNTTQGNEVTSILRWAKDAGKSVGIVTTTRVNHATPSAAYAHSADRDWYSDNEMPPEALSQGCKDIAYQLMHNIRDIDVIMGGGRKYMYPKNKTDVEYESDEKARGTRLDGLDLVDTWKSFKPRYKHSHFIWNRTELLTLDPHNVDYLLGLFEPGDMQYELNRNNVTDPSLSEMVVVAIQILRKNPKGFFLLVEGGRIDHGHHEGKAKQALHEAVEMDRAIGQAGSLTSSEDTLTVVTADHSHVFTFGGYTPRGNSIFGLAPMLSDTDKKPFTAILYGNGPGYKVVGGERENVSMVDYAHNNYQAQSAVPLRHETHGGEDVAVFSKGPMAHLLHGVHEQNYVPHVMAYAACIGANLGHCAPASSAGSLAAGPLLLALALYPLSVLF
Assay: activation of tissue-nonspecific alkaline phosphatase – biochemical, TNAP isozyme, mouse IAP uHTS hits, selectivity assay for mouse IAP activator project, dose response (AID 488880)

| Structure (SMILES) | EC50 |
| --- | --- |
| CN(CCO)c1ccc(CN=Nc2ccc([N+](=O)[O-])cc2S(=O)(=O)Nc2ccccc2C(=O)O)cc1 | 19.7 µM |
| O=C(NN=CC1=CC(=O)C(=O)CC1)NN=CC1=CC(=O)C(=O)CC1 [1,3-bis[[(Z)-(3-hydroxy-4-oxocyclohexa-2,5-dien-1-ylidene)methyl]amino]urea] | 79.4 µM |
| O=C1CC(=O)c2c(O)cc(O)c(O)c2C1=O [4,5,7,8-tetrahydroxy-1,2-naphthoquinone] | > 100 µM |
| C#CCOCCOCCOCCNc1nc(N2CCN(C(=O)CCCCCCCCCCNC(=O)[C@@H](CCC(=O)O)n3cc(CCCCCN)nn3)CC2)nc(N2CCN(C(=O)CCCCCCCCCCNC(=O)[C@H]([C@@H](C)CC)n3cc(CCCCCN)nn3)CC2)n1 [KI-KE] | > 100 µM |
| Cc1cc(=O)[nH]c(N=NCc2ccc(O)c(O)c2)n1 [MLS001194906] | 56.1 µM |
